{
  "source": "patent US11666619B2",
  "about": "“Composition for treating atopic dermatitis including herbal medicine mixed extract” (University—Industry Cooperation Group of Kyung Hee …, priority 2016, dated 2023)",
  "key": {"[1]": {"test_system": "white blood cells (WBCs)", "test": "Number of white blood cells in blood of DNCB-treated mice (hematology analyzer)", "type": "in vivo, mouse", "details": "FIG. 5", "experimental": "High levels of white blood cells (WBCs) are observed in most atopic dermatitis patients. Therefore, to examine therapeutic effects of KAJD on atopic dermatitis, the number of WBCs in the blood of mice was analyzed after treatment with KAJD. In detail, whole blood samples were collected from the heart of a mouse, and stored in a Vacutainer™ tube containing EDTA (BD Science, NJ, USA). The number of WBCs, lymphocytes, monocytes, eosinophils, basophils, or neutrophils was analyzed using a HEMAVET 950 hematology analyzer (Drew Scientific, Inc., Oxford, USA)."}, "[2]": {"test_system": "BALB/c mouse", "test": "DNCB-induced AD-like skin lesions in BALB/c mouse: clinical signs, skin thickness, spleen weight, body weight", "type": "in vivo", "details": "DNCB-treated BALB/c mice", "excerpt": "To examine effects of KAJD on atopic dermatitis (AD), DNCB (2,4-dinitrochlorobenzene) was applied to the skin of a BALB/c mouse to induce AD-like symptoms. In many studies regarding atopic dermatitis, models in which atopy-like dermatitis was induced using chemical antigens such as DNCB, 2,4-dinitrofluorobenzene, 2,4,6-trinitrothlorobenzene, etc. are used ([…]. et al, Immunology, 1995, 86, 545-550). In detail, 6-week-old BALB/c mice (20±2 g) were used, which were purchased from Orient Inc. (Seongnam, Korea). Mice were randomly divided into control groups or experimental groups (no treatment, DNCB, DNCB+tacrolimus, DNCB+KAJD), each group including five mice. All mice were raised under a pathogen-free environment with free access to sterile distilled water and solid feed. All mouse experiments were approved by the Experimental Animal Ethics Committee of Kyung Hee University (Approval Number: KHUASP (SE)-14-014). To induce AD-like skin lesions, the dorsal skin of the mouse was shaved, and 100 μL of 2% DNCB was applied thereto using a patch of 1 cm×1 cm twice a week. KAJD or tacrolimus, which is an existing therapeutic agent for AD, was periodically applied to the DNCB-applied skin for 2 weeks. At 28 days, all mice were sacrificed by CO2 inhalation. To examine changes in the skin of the BALB/c mouse by KAJD, clinical signs were observed once a week for 4 weeks. Severities of AD-like lesions in the dorsal skin, which are indicated by erythema/bleeding, edema, exfoliation/dryness, and excoriation/erosion, were scored according to a scale of 0 to 3 (0: absent, 1: mild, 2: moderate, 3: severe). Individual scores were added, and clinical skin scores were defined according to a scale of 0 to 12."}, "[3]": {"test_system": "serum IgE and inflammatory cytokines", "test": "Serum IgE and inflammatory cytokines in DNCB-treated mice (sandwich ELISA)", "type": "in vivo, mouse", "details": "FIG. 6", "experimental": "One of the features of AD is high expression levels of blood IgE and inflammatory cytokines. Therefore, to analyze a mechanism of anti-inflammatory activity of KAJD, levels of blood IgE and inflammatory cytokines in DNCB-treated mice were analyzed. In detail, expression levels were analyzed by sandwich ELISA using a BD PharMingen mouse or human ELISA set (Pharmingen, San Diego, Calif., USA). A plate was coated with a capture antibody contained in an ELISA coating buffer (Sigma, St. Louis, Mo., USA), and stored at 4° C. for one day. The plate was washed with 0.05% PBS-Tween 20, and subsequently, blocked with 10% FBS-containing PBS at 20° C. for 1 hour. A standard antigen or sample serially diluted with a dilution buffer (10% FBS-containing PBS) was put in the plate, followed by incubation at 20° C. for 1 hour. Thereafter, biotin-conjugated anti-mouse IgE and SAv-HRP (streptavidin-horseradish peroxidase conjugate) was added to the plate, followed by incubation at 20° C. for 1 hour. Lastly, a TMB (tetramethylbenzidine) substrate solution was added to the plate, and incubated under dark conditions for 15 minutes, and then the reaction was terminated with a 2 N H2SO4 solution. Optical density was measured using an ELISA reader (Versa Max, Molecular Devices, CA, USA) at 450 nm."}},
  "data": [
    {"smiles": "C=CC[C@@H]1/C=C(\\C)C[C@H](C)C[C@H](OC)[C@H]2O[C@@](O)(C(=O)C(=O)N3CCCC[C@H]3C(=O)O[C@H](/C(C)=C/[C@@H]3CC[C@@H](O)[C@H](OC)C3)[C@H](C)[C@@H](O)CC1=O)[C@H](C)C[C@@H]2OC", "note": "[tacrolimus]", "values": [
      {"measurement": "number of WBC subtypes including lymphocytes, monocytes, eosinophils, basophils, and neutrophils", "setting": "[1]", "value": "decrease the number of WBC subtypes"},
      {"measurement": "number of white blood cells", "setting": "[1]", "value": "considerably decrease"},
      {"measurement": "scleroderma (thickness of the dorsal skin)", "setting": "[2]; FIG. 2C", "value": "remarkably decrease"},
      {"measurement": "spleen weight", "setting": "[2]; FIG. 2D", "value": "remarkably decrease"},
      {"measurement": "severe symptoms of the skin (erythema/bleeding, edema, exfoliation/dryness, excoriation/erosion)", "setting": "[2]; topical application, FIG. 2A", "value": "remarkably reduce severe symptoms of the skin"},
      {"measurement": "clinical score (severity score of AD-induced skin lesions)", "setting": "[2]; scale of 0 to 12, applied to DNCB-applied skin for 2 weeks, FIG. 2B", "value": "3.29±0.76"},
      {"measurement": "serum IgE", "setting": "[3]", "value": "considerably inhibit"},
      {"measurement": "serum inflammatory cytokines (IL-6, IL-10, IL-12)", "setting": "[3]", "value": "considerably inhibit"}
    ]}
  ]
}
